Molecular target: T1, C-terminal truncated core protein (HBV core dimer, BODIPY-FL labelled) (UniProt P03146)
T1 construct: fused on or other part: One added cysteine at position 150, labelled with BODIPY-FL maleimide; The C-terminal arginine-rich domain is absent
Test: Biochemical capsid assembly assay (fluorescence quenching)
Method: Biochemical Capsid Assembly Assay
The screening for assembly effector activity was done based on a fluorescence quenching assay published by Zlotnick et al. (2007). The C-terminal truncated core protein containing 149 amino acids of the N-terminal assembly domain fused to a unique cysteine residue at position 150 and was expressed in E. coli using the pET expression system (Merck Chemicals, Darmstadt). Purification of core dimer protein was performed using a sequence of size exclusion chromatography steps. In brief, the cell pellet from 1 L BL21 (DE3) Rosetta2 culture expressing the coding sequence of core protein cloned NdeI/XhoI into expression plasmid pET21b was treated for 1 h on ice with a native lysis buffer (Qproteome Bacterial Protein Prep Kit; Qiagen, Hilden). After a centrifugation step the supernatant was precipitated during 2 h stirring on ice with 0.23 g/ml of solid ammonium sulfate. Following further centrifugation the resulting pellet was resolved in buffer A (100 mM Tris, pH 7.5; 100 mM NaCl; 2 mM DTT) and was subsequently loaded onto a buffer A equilibrated CaptoCore 700 column (GE HealthCare, Frankfurt). The column flow through containing the assembled HBV capsid was dialyzed against buffer N (50 mM NaHCO3 pH 9.6; 5 mM DTT) before urea was added to a final concentration of 3M to dissociate the capsid into core dimers for 1.5 h on ice. The protein solution was then loaded onto a 1 L Sephacryl 5300 column. After elution with buffer N core dimer containing fractions were identified by SDS-PAGE and subsequently pooled and dialyzed against 50 mM HEPES pH 7.5; 5 mM DTT. To improve the assembly capacity of the purified core dimers a second round of assembly and disassembly starting with the addition of 5 M NaCl and including the size exclusion chromatography steps described above was performed. From the last chromatography step core dimer containing fractions were pooled and stored in aliquots at concentrations between 1.5 to 2.0 mg/ml at −80° C.
Immediately before labelling the core protein was reduced by adding freshly prepared DTT in a final concentration of 20 mM. After 40 min incubation on ice storage buffer and DTT was removed using a Sephadex G-25 column (GE HealthCare, Frankfurt) and 50 mM HEPES, pH 7.5. For labelling 1.6 mg/ml core protein was incubated at 4° C. and darkness overnight with BODIPY-FL maleimide (Invitrogen, Karlsruhe) in a final concentration of 1 mM. After labelling the free dye was removed by an additional desalting step using a Sephadex G-25 column. Labelled core dimers were stored in aliquots at 4° C. In the dimeric state the fluorescence signal of the labelled core protein is high and is quenched during the assembly of the core dimers to high molecular capsid structures. The screening assay was performed in black 384 well microtiter plates in a total assay volume of 10 μl using 50 mM HEPES pH 7.5 and 1.0 to 2.0 μM labelled core protein. Each screening compound was added in 8 different concentrations using a 0.5 log-unit serial dilution starting at a final concentration of 100 μM, 31.6 μM or 10 μM, In any case the DMSO concentration over the entire microtiter plate was 0.5%. The assembly reaction was started by the injection of NaCl to a final concentration of […] which induces the assembly process to approximately 25% of the maximal quenched signal. […] after starting the reaction the fluorescence signal was measured using a Clariostar plate reader (BMG Labtech, Ortenberg) with an excitation of 477 nm and an emission of 525 nm. As 100% and 0% assembly control HEPES buffer containing 2.5 M and 0 M NaCl was used. Experiments were performed thrice in triplicates. EC50 values were calculated by non-linear regression analysis using the Graph Pad Prism 6 software (GraphPad Software, La Jolla, USA).

T1 sequence (P03146 whole entry, the tested form may be a part): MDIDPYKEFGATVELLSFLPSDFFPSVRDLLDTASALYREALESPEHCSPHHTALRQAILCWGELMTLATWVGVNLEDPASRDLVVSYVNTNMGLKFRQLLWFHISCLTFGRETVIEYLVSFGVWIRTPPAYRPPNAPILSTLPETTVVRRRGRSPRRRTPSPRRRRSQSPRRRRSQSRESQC

SMILES: O=C1CCC(CNC(=O)C(=O)N2CCN(C(=O)c3cc4ccccc4[nH]3)CC2)N1 (stereo not drawn) [Example 14, 2-[4-(1H-indole-2-carbonyl)piperazin-1-yl]-2-oxo-N-[(5-oxopyrrolidin-2-yl)methyl]acetamide]
- IC50: < 100 µM

SMILES: C#CCNC(=O)C(=O)N1CCN(C(=O)c2cc3ccccc3[nH]2)CC1 [Example 15, 2-(4-(1H-indole-2-carbonyl)piperazin-1-yl)-2-oxo-N-(prop-2-yn-1-yl)acetamide]
- IC50: < 5 µM

SMILES: O=C(N[C@H]1CC[C@@H](O)CC1)C(=O)N1CCN(C(=O)c2cc3ccccc3[nH]2)CC1 [Example 16, 2-(4-(1H-indole-2-carbonyl)piperazin-1-yl)-N-((1s,4s)-4-hydroxycyclohexyl)-2-oxoacetamide]
- IC50: 5 to 10 µM

SMILES: O=C(N[C@H]1C[C@H](O)C1)C(=O)N1CCN(C(=O)c2cc3ccccc3[nH]2)CC1 [Example 17, 2-(4-(1H-indole-2-carbonyl)piperazin-1-yl)-N-((1 r,3 r)-3-hydroxycyclobutyl)-2-oxoacetamide]
- IC50: 5 to 10 µM

SMILES: O=C(NCC1(O)CC1)C(=O)N1CCN(C(=O)c2cc3ccccc3[nH]2)CC1 [Example 18, 2-(4-(1H-indole-2-carbonyl)piperazin-1-yl)-N-((1-hydroxycyclopropyl)methyl)-2-oxoacetamide]
- IC50: < 100 µM

SMILES: O=C1CC2(CC(CNC(=O)C(=O)N3CCN(C(=O)c4cc5ccccc5[nH]4)CC3)C2)N1 (stereo not drawn) [Example 19, 2-(4-(1H-indole-2-carbonyl)piperazin-1-yl)-2-oxo-N-((2-oxo-1-azaspiro[3.3]heptan-6-yl)methyl)acetamide]
- IC50: < 100 µM

SMILES: NC(=O)C1(CNC(=O)C(=O)N2CCN(C(=O)c3cc4ccccc4[nH]3)CC2)CCC1 [Example 20, 1-((2-(4-(1H-indole-2-carbonyl)piperazin-1-yl)-2-oxoacetamido)methyl)cyclobutane-1-carboxamide]
- IC50: < 100 µM

SMILES: NC(=O)C1(CNC(=O)C(=O)N2CCN(C(=O)c3cc4ccccc4[nH]3)CC2)CC(F)(F)C1 [Example 21, 1-((2-(4-(1H-indole-2-carbonyl)piperazin-1-yl)-2-oxoacetamido)methyl)-3,3-difluorocyclobutane-1-carboxamide]
- IC50: 5 to 10 µM

SMILES: CNC(=O)C1(CNC(=O)C(=O)N2CCN(C(=O)c3cc4ccccc4[nH]3)CC2)CCC1 [Example 22, 1-((2-(4-(1H-indole-2-carbonyl)piperazin-1-yl)-2-oxoacetamido)methyl)-N-methylcyclobutane-1-carboxamide]
- IC50: < 100 µM

SMILES: CCCCNC(=O)C(=O)N1CCN(C(=O)c2cc3cc(F)ccc3[nH]2)CC1 [Example 27, N-butyl-2-(4-(5-fluoro-1H-indole-2-carbonyl)piperazin-1-yl)-2-oxoacetamide]
- IC50: < 5 µM

SMILES: O=C(N[C@H]1CC[C@H](O)CC1)C(=O)N1CCN(C(=O)c2cc3ccccc3[nH]2)CC1 [Example 33, 2-(4-(1H-indole-2-carbonyl)piperazin-1-yl)-N-((1r,4r)-4-hydroxycyclohexyl)-2-oxoacetamide]
- IC50: < 100 µM

SMILES: C[C@H](O)CNC(=O)C(=O)N1CCN(C(=O)c2cc3ccccc3[nH]2)CC1 [Example 36, (S)-2-(4-(1H-indole-2-carbonyl)piperazin-1-yl)-N-(2-hydroxypropyl)-2-oxoacetamide]
- IC50: < 5 µM

SMILES: C[C@H](NC(=O)C(=O)N1CCN(C(=O)c2cc3ccccc3[nH]2)CC1)C(F)(F)F [Example 37, 2-[4-(1H-indole-2-carbonyl)piperazin-1-yl]-2-oxo-N-[(2S)-1,1,1-trifluoropropan-2-yl]acetamide]
- IC50: < 5 µM

SMILES: C[C@@H](NC(=O)C(=O)N1CCN(C(=O)c2cc3ccccc3[nH]2)CC1)C(F)(F)F [Example 38, (R)-2-(4-(1H-indole-2-carbonyl)piperazin-1-yl)-2-oxo-N-(1,1,1-trifluoropropan-2-yl)acetamide]
- IC50: < 5 µM

SMILES: CC1(NC(=O)C(=O)N2CCN(C(=O)c3cc4ccccc4[nH]3)CC2)CCOCC1 [Example 39, 2-(4-(1H-indole-2-carbonyl)piperazin-1-yl)-N-(4-methyltetrahydro-2H-pyran-4-yl)-2-oxoacetamide]
- IC50: < 5 µM

Reference: patent US20220227737A1, “NOVEL OXALYL PIPERAZINES ACTIVE AGAINST THE HEPATITIS B VIRUS (HBV)” (AiCuris GmbH & Co. KG, priority 2019, published 2022)
